One substance from patent US20240252472A1, “COMBINATIONS FOR TREATING CANCER” (Purdue Pharma L.P., priority 2023, published 2024) can be followed below.

Common to all, as to format: in vivo
Experiment [1] concerns subcutaneous plasmacytoma derived from MM.1S cells. As to the kind of experiment: First subcutaneous plasmacytoma model, NSG mice with human NK cells. The note with it: EDO-S101 30 mg/kg i.v. weekly, daratumumab 8 mg/kg i.p. weekly, 4 weeks; vehicle 30 days. How it is done: For the first subcutaneous human plasmacytoma model, NSG mice (Charles River Laboratories, Wilmington, MA, USA) were subcutaneously inoculated into the right flank with 3×10^6 MM1S in 100 μL RPMI 1640 medium and 100 μL of Matrigel (BD Biosciences). When tumors developed, mice were injected with human NK cells isolated from buffy coats from healthy donors and randomized (4 mice/group) to receive: EDO-S101 (30 mg/kg, iv weekly), daratumumab (8 mg/kg, ip weekly), a combination thereof, or vehicle (PBS vehicle solution with 15% HPBCD, 1.5% acetic acid, and 1.25% NaHCO3). Both, NK cells and the treatments were administered over four consecutive weeks. Caliper measurements of the tumor diameters were performed three times a week, and the tumor volume was estimated as the volume of a 3D ellipse using the following formula: V=4/3π×(a/2)×(b/2)^2, where “a” and “b” correspond to the longest and shortest diameter, respectively. Animals were killed when their tumors reached 2 cm. Differences in tumor volumes between control and treated groups were evaluated using one-way analysis of variance and Dunn's post-hoc tests. […]

Another experiment has as its system MM1S-luc derived tumors. As to the kind of experiment: Disseminated human myeloma model, CB17-SCID mice. The note with it: EDO-S101 15 mg/kg i.v. weekly, daratumumab 8 mg/kg i.p. weekly, 4 weeks; vehicle 33 days. How it is done:
MM1S-luc cells (3×10^6) were injected intravenously (i.v.) into CB17-SCID mice which were determined to have normal NK cells, monocytes and granulocytes (The Jackson Laboratory, Bar Harbor, ME, USA). Tumor development was monitored by non-invasive bioluminescence imaging (BLI) with a Xenogen IVIS 50 system (Caliper Life Sciences, Hopkinton, MA, USA). Mice were randomized into four groups (n=5/group): one receiving vehicle (i.v., weekly), another group receiving EDO-S101 (15 mg/kg i.v., weekly on Tuesdays), another group receiving daratumumab (8 mg/kg i.p., weekly on Wednesdays) and the last group receiving the double combination of EDO-S101+daratumumab. Both drugs were administered over a period of 4 weeks.
CB17-SCID mice bearing MM1S-luc derived tumors were treated with EDO-S101, daratumumab, a combination thereof, or vehicle, in accordance with the methods outlined above. MM1S-Luc cells (3×10^6) were intravenously injected into CB17-SCID mice. After 2 weeks, mice were randomized into four groups: one receiving vehicle (i.v., weekly), another group receiving EDO-S101 (15 mg/kg i.v., weekly on Tuesdays), another group receiving daratumumab (8 mg/kg i.p., weekly on Wednesdays) and the last group received the double combination of EDO-S101+daratumumab. Survival of mice analyzed with a Kaplan-Meier curve. Both drugs were administered over a period of 4 weeks.

Experiment [2] deals with subcutaneous plasmacytoma derived from MM1.S cells. As to the kind of experiment: Second subcutaneous plasmacytoma model, CB17-SCID mice. The note with it: EDO-S101 30 mg/kg i.v. weekly, daratumumab 8 mg/kg i.p. weekly, 4 weeks; vehicle 34 days. The text has this: For the second subcutaneous human plasmacytoma model, CB17-SCID mice (The Jackson Laboratory) were used. CB17-SCID mice were randomised into groups (n=5). The design of the experiment (treatment doses and time schedule) was identical to the experiment described above with NSG mice except for the inoculation of NK cells, since CB17-SCID mice have their own functional NK cells.
For the second subcutaneous human plasmacytoma model, CB17-SCID mice (20 female mice, 5-6 weeks old; from The Jackson Laboratory) were used. The design of the experiment (treatment doses and time schedule) was identical to the one performed with NSG mice except for the inoculation of human NK cells, since CB17-SCID mice hold their own functional NK cells (Dorshkind et al., J Immunol 134:3798-3801, 1985).
In the second xenograft plasmacytoma model, CB17-SCID mice bearing a subcutaneous plasmacytoma derived from MM1.S cells were randomized to receive vehicle, daratumumab, EDO-S101 or the double combination. Mice were treated with EDO-S101 on Mondays and daratumumab was administered on Tuesdays. […] Furthermore, statistical differences in survival were also found between the combination vs vehicle (58 days±2.739 vs 34 days±2.191 days, respectively; p=0.003).

For “daratumumab: anti-CD38 monoclonal antibody clinically approved for multiple myeloma [reference compound]”, the median survival is on record as 34 days in experiment [1] and 59 days in the experiment with MM1S-luc derived tumors. For the same substance, the overall median survival in experiment [2] is on record as 41 days.
